≈ marks a conversion by molar mass, not a printed value. Where “and” joins values, the source holds several entries; their conditions need not be identical. Identical values can stand only once. Entries after “also recorded” stand apart in the source; their conditions may differ. Like-named read-outs stand apart in the source and are kept apart here. Values belong to the compound of their own block, whether it stands above or below them.
Legend:
[1] = tested on: rat primary hippocampal neurons; assay: Hippocampal neuronal survival (Hoechst 33342); type: cell-based
Experimental: All animal procedures were approved by the Johns Hopkins University Animal Care and Use Committee. Primary hippocampal neurons were prepared from day 18 decapitated embryos of Sprague-Dawley rats following previously described methods. Cells were seeded on polyethyleneimine (PEI)-coated slides in 12-well plates and cultured between 14–21 days. […] After 18 h, cells were stained with 50 μg/ml Hoeschst 33342 for 20 min and then fixed with 4% paraformaldehyde for 30 min. The number of living and apoptotic cells was determined by fluorescence microscopy. A minimum of 500 cells were counted per treatment condition. Results were normalized to control untreated cells and were representative of at least two independent experiments conducted in triplicate. Statistical evaluation of the data was done by Student’s t-test.

SIRT1 = conditions: cited from earlier work
human nSMase2 [2] = molecular target: T1, human nSMase2 (Homo sapiens, UniProt Q9NY59); assay: Fluorescence (Amplex red coupled) nSMase2 activity assay; type: biochemical; design: Full length human nSMase2 cDNA with a C-terminal Flag tag; crude cell lysate used as enzyme; conditions: for block of human nSMase2 activity: even at 100 μM; for inhibition of human nSMase2 activity: 150 μM GW4869, 100 μM manumycin A, altenusin, zoledronic acid
T1 sequence (Q9NY59 1-655): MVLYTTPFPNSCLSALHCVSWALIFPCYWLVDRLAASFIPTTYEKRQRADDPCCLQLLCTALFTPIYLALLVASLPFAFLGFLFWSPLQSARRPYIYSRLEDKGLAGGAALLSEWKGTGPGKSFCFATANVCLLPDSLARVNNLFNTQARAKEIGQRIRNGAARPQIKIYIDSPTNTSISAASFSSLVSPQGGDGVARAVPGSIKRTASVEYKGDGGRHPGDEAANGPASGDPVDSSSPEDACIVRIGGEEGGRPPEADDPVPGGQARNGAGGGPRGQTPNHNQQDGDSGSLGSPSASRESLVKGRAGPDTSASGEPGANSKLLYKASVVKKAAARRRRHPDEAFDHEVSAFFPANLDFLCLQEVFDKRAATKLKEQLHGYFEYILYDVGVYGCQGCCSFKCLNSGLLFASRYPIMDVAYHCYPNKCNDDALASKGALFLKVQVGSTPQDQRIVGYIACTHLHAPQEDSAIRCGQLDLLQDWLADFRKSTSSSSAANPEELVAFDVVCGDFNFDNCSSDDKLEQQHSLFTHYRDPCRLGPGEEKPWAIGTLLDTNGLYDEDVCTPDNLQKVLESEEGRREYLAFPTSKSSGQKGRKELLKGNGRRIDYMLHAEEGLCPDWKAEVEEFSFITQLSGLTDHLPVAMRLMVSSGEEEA
Experimental: The production of the latter was coupled to a dephosphorylation reaction catalyzed by alkaline phosphatase (4 U/ml) to produce choline, followed by oxidation of choline by choline oxidase (0.1 U/ml) to produce betaine and H2O2, which in the presence of horseradish peroxidase (HRP, 1U/ml) and 50 μM Amplex red, generates the fluorescent molecule resorufin (Life Technologies). Substrate stock solution was prepared in 2% Triton X-100, vortexed and sonicated for 30 min. Reactions were carried out for 1 h at 37°C in 100 mM Tris-HCl pH 7.4, 10 mM MgCl2, 0.2% Triton X-100 and the generation of the fluorescent product was monitored by measuring relative florescence units (RFU) with excitation at 530 nm and emission at 590 nm (Fig 1). This assay was optimized for 384-well format (50 μl total volume per well) based on linearity of the enzymatic activity with respect to time, as well as substrate and enzyme concentrations. […] This fluorescence assay was used for compound screening and IC50 value determinations, based on duplicate eight-point dose response curves.

SIRT2 = conditions: cited from earlier work
nSMase [3] = tested on: nSMase; design: method as in PMID 21615386, PMID 17049336; conditions: cited from earlier work
human nSMase2 [4] = molecular target: T1, human nSMase2; assay: 14C-SM confirmatory direct activity assay; type: biochemical; design: Full length human nSMase2 cDNA with a C-terminal Flag tag; host or cells: HEK293, stably transfected; crude cell lysate used as enzyme
Experimental: This assay was dependent on the direct hydrolysis of ^14C-labeled SM (^14C N-methyl groups in the phosphorylcholine) by human nSMase2. Optimization of assay conditions was accomplished according to the methods of Barbone et al.. Briefly, bovine [N-methyl-^14C]-sphingomyelin (specific activity […], Perkin Elmer) and phosphatidylinositol (Avanti Polar Lipids) were evaporated to dryness under a stream of nitrogen and resuspended at an equimolar concentration of 0.1 mM in water with 0.5% Triton X-100 (Sigma). The solution was vortexed for 30 min and then sonicated for 30 min. Assay conditions were as follows: 50 μl total volume per reaction, consisting of 20 μM SM, reaction buffer (100 mM Tris-HCl pH 7.5, 80 mM MgCl2, 0.1% Triton X-100); 10 μl cell lysate containing recombinant human nSMase2 (0.5–1 μg protein/assay) and 5 μl of compound in reaction buffer containing 10% DMSO. After 1 h incubation at 37°C the reaction was terminated by the addition of 30 μl of water and 175 μl of chloroform/methanol (2:1, v:v), followed by vigorous vortexing. Tubes were centrifuged for 5 min at 10,000 xg at room temperature to separate the organic bottom phase containing labeled SM and the aqueous upper phase containing ^14C-labeled-phosphorylcholine. An aliquot (50 μl) of the upper phase was transferred to a vial with 10 ml of scintillant and counted for 2 min on a Beckman LS-6000IC scintillation counter. Enzyme activity was directly proportional to the disintegrations per min (dpm) resulting from the generation of ^14C-phosphorylcholine.

nSMase [5] = molecular target: nSMase; design: method as in PMID 21615386, PMID 17049336; conditions: Enzyme source: Mouse brain; cited from earlier work
nSMase [6] = molecular target: nSMase; design: method as in PMID 21615386, PMID 17049336; conditions: cited from earlier work; remark: listed apart in the source
[7] = in DMSO; cited from earlier work
Solubility = type: physicochemical; conditions: cambinol compared to GW4869

block of human nSMase2 activity (human nSMase2 [2]): not possible to block
Structure (SMILES): CC(NC(=O)c1ccccc1/N=C/c1c(O)ccc2ccccc12)c1ccccc1 (centres unmarked) [sirtinol, reference compound]
neuron survival, Mean (normalized to control untreated cells) ([1]; 100 ng/ml TNFα, 40 µM compound): 60.73
neuron survival, Mean (normalized to control untreated cells) ([1]; No TNFα, 40 µM compound): 53.3

Structure (SMILES): NC(=O)[C@H]1CCCCc2c1[nH]c1ccc(Cl)cc21 [CHIC-35, reference compound]
neuron survival, Mean (normalized to control untreated cells) ([1]; 100 ng/ml TNFα, 200 nM compound): 71.88
neuron survival, Mean (normalized to control untreated cells) ([1]; No TNFα, 200 nM compound): 62.07
block of human nSMase2 activity (human nSMase2 [2]): not possible to block
IC50 (human nSMase2 [2]; fluorescence nSMase2 assay (S2 Fig)): 70 µM
IC50 (SIRT2): 19.6 µM

Structure (SMILES): CCCC[C@@H](C)/C=C(C)/C=C(\C)C(=O)NC1=C[C@@](O)(/C=C/C=C/C=C/C(=O)NC2=C(O)CCC2=O)[C@@H]2O[C@@H]2C1=O [Manumycin A, reference compound]
MOI (nSMase [3]): Irreversible
inhibition of human nSMase2 activity (human nSMase2 [2]): inhibition

IC50 (human nSMase2 [4]; [14C]-SM direct activity assay, human recombinant enzyme): > 100 µM
Structure (SMILES): CCCCn1c(-c2ccccc2)c(Cc2c(O)ccc3ccccc23)c(=O)[nH]c1=S [compound 4]
potency and specificity against SIRT 2 vs cambinol (SIRT2): significantly improved
human nSMase2 inhibitory activity of analog vs cambinol (human nSMase2 [4]; SAR): loss of activity; also recorded: eliminated

Structure (SMILES): CCCCCCCCCCC=NNC(=N)N [C11AG]
IC50 (nSMase [5]): 8 µM

Structure (SMILES): O=C(/C=C\c1ccc(/C=C\C(=O)Nc2ccc(C3=NCCN3)cc2)cc1)Nc1ccc(C2=NCCN2)cc1 [GW4869, reference compound]
modulation of enzymatic activity (Fig 3C raw data) (human nSMase2 [2]; 150 µM (nominal)): 59.6 RFU and 72.8 RFU and 57.5 RFU and 70.4 RFU
inhibition of human nSMase2 activity (human nSMase2 [2]): possible to inhibit enzyme activity; also recorded: inhibition
IC50 (nSMase [6]; Enzyme source: Rat brain): 1000 nM
MOI (nSMase [6]): Non- competitive
solubility [7]: 0.2 mg/mL (≈ 396 µM)
aqueous solubility (Solubility): low
